Experimental data published in patent publication US7250551B2, “Transgenic mice expressing inducible human p25” (President and Fellows of Harvard College, priority 2002, dated 2007).

Assays:
[1] = tested on: T668 phosphorylation on APP; assay: Ionomycin-induced T668 phosphorylation of APP in primary hippocampal neurons, Western blot; type: cell-based, rat; details: for T668 phosphorylation induced by ionomycin: 20 μM inhibitor 15 min before 4 μM ionomycin for 5 hours
Method: Primary hippocampal neurons were cultured as described from E18 rat embryos (Niethammer et al. (2000) Neuron 28:697). 8-day old cultures were treated with different concentrations of ionomycin (Calbiochem). In some cases, hippocampal neurons were incubated with either 20 μM roscovitine (Calbiochem) or 20 μM butyrolactone (Calbiochem) for 15 min at 37° C. before being treated with 4 μM ionomycin for 5 hours. Neurons were lysed in SDS sample buffer and lysates were separated on a 12% acrylamide gel and analyzed by Western blotting.
To determine if neurotoxic conditions influence APP phosphorylation, primary hippocampal neurons were treated with ionomycin.

[2] = tested on: secreted Aβ(1-40) and Aβ(1-42); assay: Aβ secreted into media by primary neurons from APP(Sw) Tg mice, sandwich ELISA; type: cell-based, mouse; details: roscovitine 8 hours
Method: FIGS. 7A-7F depict that inhibition of Cdk5 reduces Aβ generation in a Tg mouse model of AD. (A) Inhibition of Cdk5 lead to a decrease in Aβ secretion. Primary mixed hippocampal and cortical neurons were cultured from E17 APP (Swedish) (Sw) Tg mice. 4-day-cultured neurons were treated with the indicated concentration of roscovitine for 8 hours and assayed for the level of Aβ(1-40) secreted into the media. The level of secreted Aβ(1-40) was normalized against the untreated control. The data are the averages (±s.d.) from four independent experiments. (B) As in (A), but the level of Aβ(1-42) in the media was assayed instead. (C) Cell viability was measured using the MTT assay. Cell viability was normalized against the untreated control. […] (F) Cell viability was measured using the MTT assay.
Primary cortical neurons were cultured from E15 APP(Sw) Tg mice (Tg2576) (Hsiao et al. (1996) Science 274:99) as described (Niethammer et al. (2000) Neuron 28:697). […] Aβ secreted into the media from each culture was analyzed by sandwich ELISA (Biosource) according to specifications by the manufacturer. Cell viability was measured by treating neurons with MTT (Sigma) at a final concentration of 0.5 mg/ml for 1 hour. After MTT treatment, cell medium was replaced with DMSO and the optical density of at 495 nm was determined.

[3] = tested on: primary neurons from APP(Sw) Tg mice; assay: MTT cell viability of primary neurons from APP(Sw) Tg mice; type: cell-based, mouse; details: roscovitine 8 hours
Method: Primary cortical neurons were cultured from E15 APP(Sw) Tg mice (Tg2576) (Hsiao et al. (1996) Science 274:99) as described (Niethammer et al. (2000) Neuron 28:697). 4-day-cultured neurons were replaced with new media (DMEM/F 12) and treated with different concentrations of roscovitine (Calbiochem) for 8 hours, or with butyrolactone (Calbiochem) for 16 hours. Aβ secreted into the media from each culture was analyzed by sandwich ELISA (Biosource) according to specifications by the manufacturer. Cell viability was measured by treating neurons with MTT (Sigma) at a final concentration of 0.5 mg/ml for 1 hour. After MTT treatment, cell medium was replaced with DMSO and the optical density of at 495 nm was determined.

[4] = tested on: secreted Aβ(1-40) and Aβ(1-42); assay: Aβ secreted by rat primary cortical neurons infected with HSV expressing WT APP, sandwich ELISA; type: cell-based; details: rat cortical neurons expressing WT APP via HSV, inhibitor 8 hours, dose-dependent, P<0.05
rat cortical neurons = assay: MTT cell viability of rat cortical neurons expressing WT APP; type: cell-based; details: rat cortical neurons expressing WT APP via HSV
[5] = tested on: APP subcellular distribution; assay: Distribution of WT APP in iodixanol step gradient of primary cortical neuron homogenates; type: cell-based, rat; details: roscovitine 15 μM for 8 hr (FIG. 18D)
Excerpt: FIGS. 18A-18D depict co-fractionation of T668 phosphorylated APP with BACE1 and endosome markers. (A) Adult mouse brain lysate was fractionated through an iodixanol step gradient. […] (B) Quantification of protein distribution of A (fractions 1-20) showing that full length P-APP co-fractionates with BACE1. (C) Distribution of WT and T668A APP, expressed in rat primary cortical neurons using recombinant herpes simplex virus (HSV), in an iodixanol step gradient. The distribution pattern of BACE1 resembled that of WT APP. (D) Distribution of WT APP in an iodixanol step gradient after roscovitine treatment (15 μM for 8 hr).
FIGS. 25A-25B depict immunoblots showing distribution of APP and BACE1 in iodixanol step gradient. […] Twenty hours post infection, cell homogenates were fractionated through an iodixanol step gradient and the distributions of APP and BACE1 were analyzed. […] Cell homogenates were fractionated and the distributions of APP and BACE1 were analyzed by Western blot analysis.
To assess the significance of T668 phosphorylation in APP subcellular localization, WT APP and the T668A mutant APP were introduced into primary cortical neurons using recombinant herpes simplex virus (HSV). Twenty hours post infection, cell homogenates were fractionated through iodixanol step gradient and the distribution of APP in the collected fractions was analyzed. […]

[6] = tested on: T668 phosphorylation of APP; assay: T668 phosphorylation of full length APP in HSV-APP infected rat cortical neurons, Western blot; details: rat cortical neurons expressing WT APP via HSV, inhibitor 8 hours

| SMILES | T668 phosphorylation induced by ionomycin [1] | secreted beta-amyloid (1-40) (Aβ(1-40)) levels [2] | secreted beta-amyloid (1-42) (Aβ(1-42)) levels [2] | cell viability, MTT assay [3] | levels of secreted Aβ(1-40) [4] | levels of secreted Aβ(1-42) [4] | cell viability, MTT assay (rat cortical neurons) | APP distribution in iodixanol step gradient [5] | T668 phosphorylation [6] | T668 phosphorylation on APP ([1]; primary hippocampal neurons treated with ionomycin) |
| --- | --- | --- | --- | --- | --- | --- | --- | --- | --- | --- |
| CC[C@H](CO)Nc1nc(NCc2ccccc2)c2ncn(C(C)C)c2n1 [roscovitine] | inhibited | dose-dependent decrease | also reduced | not due to a decline in cell viability | significantly reduced | significantly reduced | not due to a decline in cell viability | shifted to heavier membrane fractions | substantial decreases |  |
| O=C1CCCO1 [butyrolactone] | inhibited |  |  |  | significantly reduced | significantly reduced | not due to a decline in cell viability |  | substantial decreases |  |
| C[C@H](CCC(=O)O)C[C@H](C)C[C@H](C)C(=O)/C=C(\O)[C@H](C)C[C@H](C)C/C=C/[C@@H](C)[C@@H](O)[C@@H](C)[C@@H](O)C[C@@H]1CC[C@@](C)([C@H]2CC[C@@](C)([C@@H](C)O)O2)O1 [Ionomycin, ionomycin] |  |  |  |  |  |  |  |  |  | marked elevation |
